The nature of data set [1]: in vitro. The following applies: PAMPA, pH 7.4. In general terms: The PAMPA barrier holds no transporters, so it reflects passive diffusion.
For data set [2] the following is noted: PAMPA; for Permeability (Log Pe, cm/sec) Microvessel lipid + cholesterol (MVLC): pH 7.4.
The conditions of data set [3]: PAMPA.
For data set [4] the following is noted: PAMPA; for Permeability (Log Pe, cm/sec) Porcine polar brain lipid (PBL): pig, pH 7.4.
Data set [5] is described as follows: in vitro. The settings on record: PAMPA, pH 7.4. This is another data set of the same source.
For data set [6] the following is noted: PAMPA. The source holds these as a separate data set.

Structures are written as SMILES. Counter-ions that a name gives are not always drawn.

The Papp is the rate of passage across a membrane or cell layer, normalised by area and donor concentration. A lower Papp goes with poor permeation. `COc1cccc(C2(O)CCCCC2CN(C)C)c1` (centres unmarked) [Tramadol] had a Papp in data set [1] of 117 ×10⁻⁶ cm/s.
As for `CN(C)C(=O)C(CCN1CCC(O)(c2ccc(Cl)cc2)CC1)(c1ccccc1)c1ccccc1` [Loperamide, loperamide], in data set [2], the “Permeability (Log Pe, cm/sec) Microvessel lipid + cholesterol (MVLC)” value was −1.97 ± 0.08 cm/sec.
Consider `COc1ccc2c3c1O[C@H]1C(=O)CC[C@@]4(O)[C@@H](C2)N(C)CC[C@]314` [Oxycodone, oxycodone], for which the “Ability to cross the dodecane barrier” value in data set [3] is recorded as “unable to cross the barrier”.
For `CN(C)C[C@H]1CCCC[C@]1(O)c1cccc(O)c1` [O-desmethyl tramadol, O-desmethyltramadol], the “Permeability (Log Pe, cm/sec) Porcine polar brain lipid (PBL)” value in data set [4] is given as −0.97 ± 0.04 cm/sec.
In data set [5], `Cn1c(=O)c2c(ncn2C)n(C)c1=O` [Caffeine, caffeine] had a Papp at 2 h, 2 µM of 724 ×10⁻⁶ cm/s.
Turning to `CN1CC[C@]23c4c5ccc(O)c4O[C@H]2[C@@H](O)CC[C@H]3[C@H]1C5` [Dihydromorphine, dihydromorphine], in data set [4], the “Permeability (Log Pe, cm/sec) Porcine polar brain lipid (PBL)” value is −1.76 ± 0.09 cm/sec. Further, the “Ability to cross the dodecane barrier” value in data set [3] is given as “unable to cross the barrier”. Also, the apparent permeability coefficient (Papp) in data set [5] is 1510 ×10⁻⁶ cm/s.
Consider `CCC(=O)C(CC(C)N(C)C)(c1ccccc1)c1ccccc1` (racemic) [Methadone, (±) methadone HCl], for which the “Permeability (Log Pe, cm/sec) Porcine polar brain lipid (PBL)” value in data set [4] is −0.37 ± 0.07 cm/sec. Also, in data set [3] (pH 7.4), the “Permeability (Log Pe, cm/sec) Dodecane” value is −1.54 ± 0.05 cm/sec.
With `Cc1nnc2n1-c1ccc(Cl)cc1C(c1ccccc1)=NC2` [Alprazolam, alprazolam], in data set [4], the “Permeability in the PBL model (in words)” value was “highly permeability”. In addition, the “Permeability in the MVL model (in words)” value in data set [6] is recorded as “highly permeability”. For the same compound, the “Permeability in the MVLC model (in words)” value in data set [2] is reported as “highly permeability”.
With `CO[C@]12CC[C@@]3(C[C@@H]1[C@](C)(O)C(C)(C)C)[C@H]1Cc4ccc(O[C@@H]5O[C@H](C(=O)O)[C@@H](O)[C@H](O)[C@H]5O)c5c4[C@@]3(CCN1CC1CC1)[C@H]2O5` [Buprenorphine glucuronide, buprenorphine-3-β-D-glucuronide], in data set [2], the “Permeability (Log Pe, cm/sec) Microvessel lipid + cholesterol (MVLC)” value was −3.27 ± 0.21 cm/sec.

Values taken from paper PMC4078735 (Journal of biomolecular screening, 2013).
